26 compounds from patent US7834024B2, “Compositions and methods for inhibition of the JAK pathway” (Rigel Pharmaceuticals, Inc., priority 2007, dated 2010) can be followed below.

For orientation: IC50 means the concentration that gives 50% inhibition.

Read-outs that look alike come from different tables or passages of the source.

In experiment [1] the test system is JAK2 (BaF3 V617F cells, UKE-1). In words: Proliferation Assay (Cell Titer-Glo, 72 hours). To be noted: proliferation 72 hours, BaF3 V617F or UKE-1 cells, cell line not given, read-out: Example 7 (IC50). The experiment is classed as cell-based. Here is the method:
• Dimethyl Sulfoxide (DMSO) (Sigma-Aldrich, Cat No. D2650) (Control) • Iscove's DMEM, ATCC Catalog #30-2005 • 1 M HEPES, Cellgro Catalog #25-060-Cl (100 mL) • 100 mM Sodium Pyruvate, Cellgro Catalog #25-000-Cl (100 mL) • Penicillin/Streptomycin, 10000 U/mL each, Cellgro Catalog #30-002-Cl (100 mL) • RPMI 1640 (Cellgro, Cat No. 10-040-CM) • Fetal Bovine Serum (JRH, Cat No. 12106-500M) • Donor Equine Serum, Hyclone Catalog #SH30074.02 (100 mL) • 50 μM hydrocortisone solution, Sigma Catalog #H6909-10 ml (10 mL) Culture Conditions
BaF3 V617F cells are maintained and plated in RPMI with 10% FBS. Plating density for these cells is 1×10^5 cells/mL.
UKE-1 are maintained and plated in Iscove's DMEM containing 10% FBS, 10% equine serum, 1% penicillin/streptomycin and 1 uM hydrocortisone. Plating density for these cells is 0.4×10^6 cells/mL
The cells were resuspended in a corresponding medium at a required cell density (see above). 100 μ of cell suspension was added to each well of a flat bottom 96 well white plate. The compound was serially diluted in DMSO from 5 mM in 3-fold dilutions, and then diluted 1:250 in the RPMI 1640 medium containing 5% FBS and pen/strep. 100 μL of resulting 2× compound solution was added per well in duplicate and the cells were allowed to proliferate for 72 hours at 37° C.
Proliferation was measured using Cell Titer-Glo. The substrate was thawed and allowed to come to room temperature. After removal of top 100 μL of medium from each well, 100 μL of the premixed Cell Titer-Glo reagent was added to each well. The plates were mixed on an orbital shaker for three minutes to induce lysis and incubated at ambient temperature for an additional five minutes to allow the signal to equilibrate. The Luminescence was read on the Wallac Plate Reader.
The results of the ability of the compounds of the invention to inhibit JAK2 activity, when tested in the above assay, are shown in the following Table IX wherein the level of activity (i.e. the IC50) for each compound is indicated in Table IX. Thae compound numbers in Table IX Refers to the compound disclosed herein as being preparded hy the methods disclosed herein: […]

Experiment [2] relates to Ramos B-Cell Line Stimulated with IL-4 (JAK-1 and JAK-3 / Stat-6, CD23). In words: Assay for Ramos B-Cell Line Stimulated with IL-4 (CD23 upregulation, FACS). Type of experiment: cell-based. To be noted: human Ramos B cells, compound 1 hour, IL-4 50 units/mL for 20-24 hours, anti-CD23-PE FACS, read-out: Example 2 (IC50). Put shortly:
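Human Ramos B cells (5×10^4 per point, RPMI with 5% serum) pre-incubated 1 hour at 37° C with compound or DMSO, then stimulated with IL-4 at 50 units/mL final for 20-24 hours. CD23 upregulation measured by flow cytometry.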

In the case of `Cc1cnc(Nc2cccc(C#N)c2)nc1Nc1ccc2c(c1)NC(=O)CO2` [II-6, N2-(3-Cyanophenyl)-5-methyl-N4-(3-oxo-2H,4H-benzo[1,4]oxazin-6-yl)-2,4-pyrimidinediamine], the IC50 in experiment [1] was 68300 nM; in experiment [2] (Homo sapiens, Ramos), 69.7 nM.
On to `CNC(=O)COc1cccc(Nc2ncc(C)c(Nc3ccc4c(c3)NC(=O)C(F)(F)O4)n2)c1` [II-49, N4-(2,2-Difluoro-3-oxo[4H]benzo[1,4]oxazin-6-yl)-5-methyl-N2-[3-(N-Methylaminocarbonylmethyleneoxy)phenyl]-2,4-pyrimidinediamine], for which the IC50 in experiment [1] is 16400 nM; in experiment [2], 98 nM.
`Cc1cnc(Nc2cccc(C(N)=O)c2)nc1Nc1ccc2c(c1)N(C)C(=O)C(C)(C)S2` [II-45, N2-(3-Aminocarbonylphenyl)-5-methyl-N4-(2,2,4-trimethyl-3-oxo-benz[1,4]thiazin-6-yl)-2,4-pyrimidinediamine]: the IC50 in experiment [1] came to 432 nM; in experiment [2] (Homo sapiens, Ramos) it was 179 nM.
As to `CNC(=O)COc1cc(Nc2ncc(F)c(Nc3ccc4c(n3)NCC(C)(C)O4)n2)ccc1OC` [II-32, N4-(3,4-Dihydro-2,2-dimethyl-2H-5-pyrido[1,4]oxazin-6-yl)-5-fluoro-N2-[4-methoxy-3-(N-methylaminocarbonylmethoxy)phenyl]-2,4-pyrimidinediamine], the IC50 in experiment [1] came to 1090 nM; in experiment [2], 89.6 nM.
Turning to `CN1CCN(c2ccc(Nc3ncc(F)c(Nc4ccc(OCC#N)cc4)n3)cc2C#N)CC1` [Compound I-41, N4-(4-Cyanomethoxyphenyl)-N2-[3-cyano-4-(4-methylpiperazin-1-yl)phenyl]-5-fluoro-2,4-pyrimidinediamine], the half-inhibitory concentration (IC50) is 388 nM in experiment [1] and 3.4 nM in experiment [2] (Homo sapiens, Ramos).
Regarding `CN1C(=O)C(C)(C)Oc2ccc(Nc3nc(Nc4ccc5c(c4)C(=O)NCC5)ncc3F)nc21` [IV-2, 5-Fluoro-N2-(1-oxo-1,2,3,4-tetrahydroisoquinolin-7-yl)-N4-[3-oxo-2,2,4-trimethyl-5-pyrido[1,4]oxazin-6-yl]-2,4-pyrimidinediamine], the IC50 in experiment [1] was found to be 4120 nM; in experiment [2] (Homo sapiens, Ramos), 748 nM.
On to `CNC(=O)COc1cc(Nc2ncc(F)c(Nc3ccc4c(c3)NC(=O)C(C)(C)O4)n2)cc(OC)c1OC` [II-18, N2-[4,5-Dimethoxy-3-(N-methylaminocarbonylmethyleneoxy)phenyl]-N4-(2,2-dimethyl-3-oxo-benzo[1,4]oxazin-6-yl)-5-fluoro-2,4-pyrimidinediamine], for which the IC50 in experiment [1] was 653 nM; in experiment [2], 25.1 nM.
As to “5-Methyl-N2-(I-oxo-1,2,3,4-tetrahydroisoquinolin-7-yl)-N4-[3-oxo-2,2,4-trimethyl-5-pyrido[1,4]oxazin-6-yl]-2,4-pyrimidinediamine [IV-3]”, the IC50 in experiment [1] was 2150 nM; in experiment [2] it was 231 nM.
With `Cc1cnc(Nc2cccc(C(N)=O)c2)nc1Nc1ccc2c(c1)N(C)C(=O)C(C)(C)O2` [II-39, N2-(3-Aminocarbonylphenyl)-5-methyl N4-(2,2,4-trimethyl-3-oxo-benz[1,4]oxazin-6-yl)-2,4-pyrimidinediamine], the IC50 in experiment [1] was 550 nM; in experiment [2] (Homo sapiens, Ramos) it was 162 nM.
As to `CN1C(=O)CSc2ccc(Nc3nc(Nc4ccc(C(N)=O)cc4)ncc3F)cc21` [II-4, N2-(4-Aminocarbonylphenyl)-5-fluoro-N4-(4-methyl-3-oxo-2H-benzo[1,4]thiazin-6-yl)-2,4-pyrimidinediamine], the IC50 in experiment [2] (Homo sapiens, Ramos) amounted to 5.43 nM.
Regarding `Cc1noc(COc2cccc(Nc3nc(Nc4cccc(C(N)=O)c4)ncc3F)c2)n1` [Compound I-128, N2-(3-Aminocarbonylphenyl)-5-fluoro-N4-[3-((3-methyl-1,2,4-oxadiazol-5-yl)methyleneoxy)phenyl]-2,4-pyrimidinediamine], in experiment [2], the IC50 came to 206 nM.
With `N#CCOc1cccc(Nc2nc(Nc3cccc(C#N)c3)ncc2F)c1` [Compound I-47, N4-(3-Cyanomethoxyphenyl)-N2-(3-cyanophenyl)-5-fluoro-2,4-pyrimidinediamine], the IC50 in experiment [2] (Homo sapiens, Ramos) turned out to be 173 nM.
Take `CNC(=O)c1cc(Nc2ncc(F)c(Nc3ccc(CC#N)cc3)n2)ccc1N1CCN(C)CC1` [Compound I-75, N4-(4-Cyanomethylphenyl)-5-fluoro-N2-[3-methylaminocarbonyl-4-(4-methylpiperazin-1-yl)phenyl]-2,4-pyrimidinediamine]: in experiment [2] (Homo sapiens, Ramos), the IC50 came to 694 nM.
On to `N#CCOc1ccc(Nc2nc(Nc3ccc(C#N)cc3)ncc2F)cc1` [Compound I-29, N2-(4-Cyanophenyl)-N4-(4-cyanomethoxyphenyl)-5-fluoro-2,4-pyrimidinediamine], for which the 50% inhibitory concentration (IC50) in experiment [2] (Homo sapiens, Ramos) was 74.6 nM.
On to `Cc1noc(CCCc2ccc(Nc3nc(Nc4cccc(C#N)c4)ncc3F)cc2)n1` [Compound I-114, N2-(3-Cyanophenyl)-5-fluoro-N4-[4-(3-(3-methyl-1,2,4-oxadiazol-5-yl)propyl)phenyl]-2,4-pyrimidinediamine], for which the IC50 in experiment [2] (Homo sapiens, Ramos) was 1750 nM.
On to `CN1CCN(C(=O)c2cccc(Nc3ncc(F)c(Nc4ccc(OCC(N)=O)cc4)n3)c2)CC1` [Compound I-37, N4-(4-Aminocarbonylmethoxyphenyl)-5-fluoro-N2-[3-((4-methylpiperazin-1-yl)carbonyl)phenyl]-2,4-pyrimidinediamine], for which the IC50 in experiment [2] (Homo sapiens, Ramos) stood at 2240 nM.
`Cc1nc(COc2ccc(Nc3nc(Nc4cccc(C#N)c4)ncc3F)cc2)no1` [Compound I-59, N2-(3-Cyanophenyl)-5-fluoro-N4-[4-((5-methyl-1,2,4-oxadiazol-3-yl)methoxy)phenyl]-2,4-pyrimidinediamine]: the IC50 in experiment [2] (Homo sapiens, Ramos) worked out at 596 nM.
Same read-out and setting: in the case of `N#Cc1ccc(Nc2ncc(F)c(Nc3ccc(OCC(N)=O)cc3)n2)cc1` [Compound I-24, N4-(4-Aminocarbonylmethoxyphenyl)-N2-(4-cyanophenyl)-5-fluoro-2,4-pyrimidinediamine] it was 245 nM.
Regarding `CNC(=O)COc1cccc(Nc2ncc(N)c(Nc3ccc4cn[nH]c4c3)n2)c1` [Compound V-4], the IC50 in experiment [2] (Homo sapiens, Ramos) is 1970 nM.
In the case of `NC(=O)c1cccc(Nc2ncc(F)c(Nc3ccc(OCc4ccccn4)cc3)n2)c1` [Compound I-133, N2-(3-Aminocarbonylphenyl)-5-fluoro-N4-[4-(2-pyridinylmethyleneoxy)phenyl]-2,4-pyrimidinediamine], the IC50 in experiment [2] came out at 1560 nM.
In the case of `CNC(=O)COc1cccc(Nc2ncc(F)c(Nc3ccc4c(c3)N(CC#N)C(=O)CS4)n2)c1` [II-12, N4-(4-Cyanomethyl-3-oxo-2H-benzo[1,4]thiazin-6-yl)-5-fluoro-N2-[3-(N-methylaminocarbonylmethyleneoxy)phenyl]-2,4-pyrimidinediamine], the IC50 in experiment [2] is 36.2 nM.
For `CNC(=O)COc1cccc(Nc2ncc(F)c(Nc3ccc(Cc4ccncc4)cc3)n2)c1` [Compound I-132, 5-Fluoro-N2-[3-(N-methylaminocarbonylmethyleneoxy)phenyl]-N4-[4-(4-pyridinylmethyl)phenyl]-2,4-pyrimidinediamine], in experiment [2], the IC50 is 322 nM.
Turning to `N#CCc1ccc(Nc2ncc(F)c(Nc3ccc(F)c(C#N)c3)n2)cc1` [Compound I-118, N4-(3-Cyano-4-fluorophenyl)-N2-(4-cyanomethylphenyl)-5-fluoro-2,4-pyrimidinediamine], in experiment [2] (Homo sapiens, Ramos), the IC50 was found to be 103000 nM.
With `NC(=O)COc1ccc(Nc2nc(Nc3cccc(C(N)=O)c3)ncc2F)cc1` [Compound I-23, N4-(4-Aminocarbonylmethoxyphenyl)-N2-(3-aminocarbonylphenyl)-5-fluoro-2,4-pyrimidinediamine], the IC50 in experiment [2] (Homo sapiens, Ramos) was 3070 nM.
Turning to `Cc1cnc(Nc2cnc3c(c2)OC(C)(C)C(=O)N3)nc1Nc1cnc2c(c1)OC(C)(C)C(=O)N2` [VII-1, N4,N2-Bis(2,2-Dimethyl-3-oxo[4H]-5-pyrido[1,4]oxazin-7-yl)-5-methyl-2,4-pyrimidinediamine], in experiment [2] (Homo sapiens, Ramos), the IC50 was 2630 nM.
Turning to `CNC(=O)COc1cccc(Nc2ncc(F)c(Nc3ccc4c(c3)N(Cc3ccc(OC)cc3)C(=O)C(C)S4)n2)c1` (racemic) [II-13, Racemic-5-fluoro-N2-[3-(N-methylaminocarbonylmethyleneoxy)phenyl]-N4-[2-methyl-3-oxo-4-(4-methoxybenzyl)-2H-benzo[1,4]thiazin-6-yl]-2,4-pyrimidinediamine], in experiment [2], the IC50 stood at 938 nM.
